Reference: PubChem BioAssay (NCI)
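Exposure lasted 48 hours, with cells grown in 96-well plates and compounds tested at five concentrations. GI50 marks 50% less growth. TGI denotes the concentration required for complete inhibition of growth.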

Key:
Experiment in all cases: NCI-60 cell line screen, 48 h
HCC-2998 colon = system: HCC-2998 colon
SF-268 CNS = system: SF-268 CNS
DU-145 prostate = system: DU-145 prostate
OVCAR-5 ovarian = system: OVCAR-5 ovarian
BT-549 breast = system: BT-549 breast
TK-10 renal = system: TK-10 renal
CAKI-1 renal = system: CAKI-1 renal
SK-MEL-5 melanoma = system: SK-MEL-5 melanoma
SK-OV-3 ovarian = system: SK-OV-3 ovarian
HOP-62 NSCLC = system: HOP-62 NSCLC
SNB-75 CNS = system: SNB-75 CNS
NCI-H522 lung = system: NCI-H522 lung
ACHN renal = system: ACHN renal
U251 CNS = system: U251 CNS
NCI-H226 lung = system: NCI-H226 lung
UACC-62 melanoma = system: UACC-62 melanoma
MCF7 breast = system: MCF7 breast
HCT-15 colon = system: HCT-15 colon
UACC-257 melanoma = system: UACC-257 melanoma
HT29 colon = system: HT29 colon
NCI-H460 lung = system: NCI-H460 lung
SW-620 colon = system: SW-620 colon
MDA-MB-468 breast = system: MDA-MB-468 breast
HS 578T breast = system: HS 578T breast
NCI-H23 lung = system: NCI-H23 lung
SK-MEL-2 melanoma = system: SK-MEL-2 melanoma
A498 renal = system: A498 renal
RXF 393 renal = system: RXF 393 renal
SF-539 CNS = system: SF-539 CNS
A549 NSCLC = system: A549 NSCLC
MDA-MB-435 = system: MDA-MB-435
OVCAR-8 ovarian = system: OVCAR-8 ovarian
MDA-MB-231 breast = system: MDA-MB-231 breast
MALME-3M melanoma = system: MALME-3M melanoma
MOLT-4 leukemia = system: MOLT-4 leukemia
HL-60(TB) leukemia = system: HL-60(TB) leukemia
KM12 colon = system: KM12 colon
786-0 renal = system: 786-0 renal
UO-31 renal = system: UO-31 renal
K-562 leukemia = system: K-562 leukemia
HOP-92 NSCLC = system: HOP-92 NSCLC
PC-3 prostate = system: PC-3 prostate
SNB-19 CNS = system: SNB-19 CNS
OVCAR-4 ovarian = system: OVCAR-4 ovarian
IGROV1 ovarian = system: IGROV1 ovarian
EKVX NSCLC = system: EKVX NSCLC
NCI/ADR-RES ovarian = system: NCI/ADR-RES ovarian
SF-295 CNS = system: SF-295 CNS
SN12C renal = system: SN12C renal
SK-MEL-28 melanoma = system: SK-MEL-28 melanoma
OVCAR-3 ovarian = system: OVCAR-3 ovarian
T-47D breast = system: T-47D breast
COLO 205 colon = system: COLO 205 colon
LOX IMVI melanoma = system: LOX IMVI melanoma

## COc1ccc(C(=O)/C=C/c2ccc(Cl)c(C(F)(F)F)c2)cc1S(N)(=O)=O
HCC-2998 colon
  GI50: 1590 nM
  TGI: 2930 nM
SF-268 CNS
  GI50: 10000 nM
  TGI: 32100 nM
DU-145 prostate
  GI50: 4990 nM
  TGI: 17000 nM
OVCAR-5 ovarian
  GI50: 3270 nM
  TGI: 9350 nM
BT-549 breast
  GI50: 1710 nM
  TGI: 3180 nM
TK-10 renal
  GI50: 2590 nM
  TGI: 7230 nM
CAKI-1 renal
  GI50: 1570 nM
  TGI: 4160 nM
SK-MEL-5 melanoma
  GI50: 3630 nM
  TGI: 13300 nM
SK-OV-3 ovarian
  GI50: 7900 nM
  TGI: 23800 nM
HOP-62 NSCLC
  GI50: 1930 nM
  TGI: 4130 nM
SNB-75 CNS
  GI50: 1620 nM
  TGI: 9690 nM
NCI-H522 lung
  GI50: 1540 nM
  TGI: 3150 nM
ACHN renal
  GI50: 1470 nM
  TGI: 2840 nM
U251 CNS
  GI50: 1420 nM
  TGI: 3080 nM
NCI-H226 lung
  GI50: 2220 nM
  TGI: 5600 nM
UACC-62 melanoma
  GI50: 1520 nM
  TGI: 3410 nM
MCF7 breast
  GI50: 333 nM
  TGI: 1390 nM
HCT-15 colon
  GI50: 893 nM
  TGI: 2340 nM
UACC-257 melanoma
  GI50: 2100 nM
  TGI: 6200 nM
HT29 colon
  GI50: 1520 nM
  TGI: 3060 nM
NCI-H460 lung
  GI50: 2400 nM
  TGI: 6620 nM
SW-620 colon
  GI50: 1230 nM
  TGI: 2690 nM
MDA-MB-468 breast
  GI50: 1340 nM
  TGI: 2690 nM
HS 578T breast
  GI50: 6570 nM
  TGI: 38800 nM
NCI-H23 lung
  GI50: 1620 nM
  TGI: 3040 nM
SK-MEL-2 melanoma
  GI50: 6780 nM
  TGI: 20400 nM
A498 renal
  GI50: 12900 nM
  TGI: 25600 nM
RXF 393 renal
  GI50: 1640 nM
  TGI: 3100 nM
SF-539 CNS
  GI50: 1610 nM
  TGI: 3000 nM
A549 NSCLC
  GI50: 2340 nM
  TGI: 10300 nM
MDA-MB-435
  GI50: 1750 nM
  TGI: 4280 nM
OVCAR-8 ovarian
  GI50: 1740 nM
  TGI: 4510 nM
MDA-MB-231 breast
  GI50: 1690 nM
  TGI: 3370 nM
MALME-3M melanoma
  GI50: 1880 nM
  TGI: 4010 nM
MOLT-4 leukemia
  GI50: 2570 nM
  TGI: 8330 nM
HL-60(TB) leukemia
  GI50: 1720 nM
  TGI: 5490 nM
KM12 colon
  GI50: 1760 nM
  TGI: 5650 nM
786-0 renal
  GI50: 419 nM
  TGI: 1800 nM
UO-31 renal
  GI50: 1400 nM
  TGI: 2740 nM
K-562 leukemia
  GI50: 1080 nM
  TGI: > 100000 nM
HOP-92 NSCLC
  GI50: 2010 nM
  TGI: 5810 nM
PC-3 prostate
  GI50: 1750 nM
  TGI: 4520 nM
SNB-19 CNS
  GI50: 1660 nM
  TGI: 3370 nM
OVCAR-4 ovarian
  GI50: 2800 nM
  TGI: 12500 nM
IGROV1 ovarian
  GI50: 1870 nM
  TGI: 4010 nM
EKVX NSCLC
  GI50: 2150 nM
  TGI: 5750 nM
NCI/ADR-RES ovarian
  GI50: 1050 nM
  TGI: 3330 nM
SF-295 CNS
  GI50: 1640 nM
  TGI: 3320 nM
SN12C renal
  GI50: 1450 nM
  TGI: 2940 nM
SK-MEL-28 melanoma
  GI50: 1740 nM
  TGI: 3190 nM
OVCAR-3 ovarian
  GI50: 1420 nM
  TGI: 2870 nM
T-47D breast
  GI50: 2370 nM
  TGI: 9360 nM
COLO 205 colon
  GI50: 1960 nM
  TGI: 4080 nM
LOX IMVI melanoma
  GI50: 313 nM
  TGI: 1100 nM
